Source: ChEMBL document CHEMBL4420076, “Amylin and calcitonin receptor agonist” (2017)
Numbered stars: 1 amine (or outer) side, 2 acyl side, 3 side chain; on linkers, the order of the positions; unused ones are H or OH. Peptide text beside a SMILES is read from it. * marks the point of attachment. C18 diacid = O=C(O)CCCCCCCCCCCCCCCCC(=O)*; γGlu = O=C(O)[C@H](CCC(=O)[*:2])N[*:1]

Legend:
[1] = Terminal half life in Sprague-Dawley rat at 20 nmol/kg, sc by LC-MS analysis; assay type: ADME, organism-based; conditions: in vivo, read-out: beta t1/2 (converted)
[2] = Dose normalized AUC in LYD pig at 1.6 mM, sc co-formulated with 1.6 mM liraglutide by LC-MS analysis; assay type: ADME, organism-based, Sus scrofa; conditions: in vivo, 1600 µM
[3] = Solubility in 100 mM bistrispropane buffer at pH 6.5 incubated for 18 hrs by UPLC analysis; assay type: physicochemical
[4] = Stability in pH 7.5 buffer assessed as lag time for fibril formation at 1 uM by Thioflavin T based fluorescence assay; assay type: physicochemical; conditions: pH 7.5, 1 µM
[5] = Solubility in 100 mM bistrispropane buffer at pH 8.0 incubated for 18 hrs by UPLC analysis; assay type: physicochemical
[6] = Solubility in 100 mM bistrispropane buffer at pH 6.0 incubated for 18 hrs by UPLC analysis; assay type: physicochemical
[7] = system: Rattus norvegicus; experiment: Reduction in food intake in Sprague-Dawley rat at 3 nmol/kg measured 24 to 48 hrs post dose relative to control; assay type: functional; design: scale not given: the % may be the effect or the level left
[8] = Stability in pH 7.5 buffer assessed as compound recovery at 1 uM by Thioflavin T based fluorescence assay; assay type: physicochemical; conditions: read-out: Drug recovery
[9] = system: Rattus norvegicus; experiment: Reduction in food intake in Sprague-Dawley rat at 3 nmol/kg measured 0 to 24 hrs post dose relative to control; assay type: functional; design: scale not given: the % may be the effect or the level left
[10] = Solubility in 100 mM glycylglycine buffer at pH 4.0 incubated for 18 hrs by UPLC analysis; assay type: physicochemical
[11] = Solubility in 100 mM bistrispropane buffer at pH 7.0 incubated for 18 hrs by UPLC analysis; assay type: physicochemical
[12] = Dose normalized AUC in LYD pig at 1.6 mM, sc co-dosed with 1.6 mM liraglutide by LC-MS analysis; assay type: ADME, organism-based, Sus scrofa; conditions: in vivo, 1600 µM
[13] = biological target: T1, Amylin receptor AMY3; CALCR/RAMP3 (Homo sapiens, UniProt O60896+P30988); experiment: Agonist activity at human amylin receptor expressed in BHK570 cells co-expressing RAMP3 assessed as increase in intracellular cAMP concentration incubated for 3 hrs in presence of 10% FBS by CRE luciferase reporter gene assay; assay type: functional, cell-based
T1 sequence (P30988 whole entry): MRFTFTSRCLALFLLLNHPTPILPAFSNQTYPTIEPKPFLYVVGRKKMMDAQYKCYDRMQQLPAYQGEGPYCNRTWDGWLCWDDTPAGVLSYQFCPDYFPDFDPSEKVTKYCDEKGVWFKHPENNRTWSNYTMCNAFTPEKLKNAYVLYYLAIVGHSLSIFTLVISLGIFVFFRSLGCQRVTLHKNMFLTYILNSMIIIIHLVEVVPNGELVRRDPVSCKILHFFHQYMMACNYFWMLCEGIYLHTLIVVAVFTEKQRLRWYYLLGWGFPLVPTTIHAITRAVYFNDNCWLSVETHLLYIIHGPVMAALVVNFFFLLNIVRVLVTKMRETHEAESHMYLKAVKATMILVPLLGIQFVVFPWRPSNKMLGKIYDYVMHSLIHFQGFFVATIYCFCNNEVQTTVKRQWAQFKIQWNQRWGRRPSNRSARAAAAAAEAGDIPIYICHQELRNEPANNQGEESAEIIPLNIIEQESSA
T1 sequence (O60896 whole entry): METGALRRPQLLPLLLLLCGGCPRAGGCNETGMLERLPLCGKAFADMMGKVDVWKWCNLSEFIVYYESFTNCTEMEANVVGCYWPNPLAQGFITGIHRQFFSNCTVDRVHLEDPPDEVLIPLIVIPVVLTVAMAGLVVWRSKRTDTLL

[14] = Solubility in 100 mM glycylglycine buffer at pH 3.0 incubated for 18 hrs by UPLC analysis; assay type: physicochemical
[15] = biological target: T1, Amylin receptor AMY3; CALCR/RAMP3; experiment: Agonist activity at human amylin receptor expressed in BHK570 cells co-expressing RAMP3 assessed as increase in intracellular cAMP concentration incubated for 3 hrs in absence of albumin by CRE luciferase reporter gene assay; assay type: functional, cell-based
[16] = biological target: T2, Calcitonin receptor (Homo sapiens, UniProt P30988); experiment: Agonist activity at human calcitonin receptor expressed in BHK570 cells assessed as increase in intracellular cAMP concentration incubated for 3 hrs in absence of albumin by CRE luciferase reporter gene assay; assay type: functional, cell-based
T2 sequence (P30988 whole entry): T1 sequence (P30988 whole entry)

[17] = Solubility in 100 mM glycylglycine buffer at pH 5.0 incubated for 18 hrs by UPLC analysis; assay type: physicochemical
[18] = Half life in LYD pig at 1.6 mM, sc co-formulated with 1.6 mM liraglutide by LC-MS analysis; assay type: ADME, organism-based, Sus scrofa; conditions: in vivo
[19] = Half life in LYD pig at 1.6 mM, sc co-dosed with 1.6 mM liraglutide by LC-MS analysis; assay type: ADME, organism-based, Sus scrofa; conditions: in vivo
[20] = Solubility in 100 mM bistrispropane buffer at pH 7.5 incubated for 18 hrs by UPLC analysis; assay type: physicochemical
[21] = biological target: T2, Calcitonin receptor; experiment: Agonist activity at human calcitonin receptor expressed in BHK570 cells assessed as increase in intracellular cAMP concentration incubated for 3 hrs in presence of 10% FBS by CRE luciferase reporter gene assay; assay type: functional, cell-based
[22] = system: Rattus norvegicus; experiment: (§1) Reduction in body weight in Sprague-Dawley rat model of diet-induced obesity assessed as relative body weight at 3.7 ug/kg, sc dosed dosed once daily during 0 to 15 days and measured on day 15 relative to initial body weight (reference value: 98.8 +/- 0.8%); assay type: functional; design: scale not given: the % may be the effect or the level left
[23] = system: Rattus norvegicus; experiment: as §1, with “daily and co-treated with 0.1 mg/kg, sc liraglutide” for “daily”, “28” for “15”; assay type: functional; design: scale not given: the % may be the effect or the level left
[24] = biological target: T1, Amylin receptor AMY3; CALCR/RAMP3; experiment: Displacement of [125I]-labeled rat amylin from human amylin receptor expressed in BHK tkts13 whole cells co-expressing RAMP3 incubated for 60 mins by scintillation proximity assay; assay type: cell-based
[25] = system: Rattus norvegicus; experiment: as §1, with “daily and co-treated with 0.1 mg/kg, sc liraglutide” for “daily”; assay type: functional; design: scale not given: the % may be the effect or the level left
[26] = system: Rattus norvegicus; experiment: Reduction in body weight in Sprague-Dawley rat model of diet-induced obesity assessed as relative body weight at 3.7 ug/kg, sc dosed dosed once daily during 0 to 28 days and measured on day 28 relative to initial body weight (reference value: 99.8 +.- 1.1%); assay type: functional; design: scale not given: the % may be the effect or the level left
[27] = system: Rattus norvegicus; experiment: Reduction in body weight in Sprague-Dawley rat model of diet-induced obesity assessed as relative body weight at 0.1 mg/kg, sc dosed dosed once daily during 0 to 28 days and measured on day 28 relative to initial body weight (reference value: 99.8 +.- 1.1%); assay type: functional; design: scale not given: the % may be the effect or the level left

AUC/dose [2] [kg·h/L]	solubility at 18 h [3] [µM]	solubility at 18 h [5] [µM]	solubility at 18 h [6] [µM]	solubility at 18 h [10] [µM]	solubility at 18 h [11] [µM]	AUC/dose [12] [kg·h/L]	solubility at 18 h [14] [µM]	EC50 [15] [nM]	EC50 [16] [nM]	solubility at 18 h [17] [µM]	half-life at 1600 µM [18] [h]	half-life at 1600 µM [19] [h]	solubility at 18 h [20] [µM]	Structure (SMILES)	Activity [7] [%]	Activity [9] [%]	further results
														CC(C)C[C@H](NC(=O)[C@H](CCCCN)NC(=O)CNC(=O)[C@H](CC(C)C)NC(=O)[C@@H](NC(=O)[C@H](CS)NC(=O)[C@@H](NC(=O)[C@H](CO)NC(=O)[C@H](CC(C)C)NC(=O)[C@H](CC(N)=O)NC(=O)[C@H](CO)NC(=O)[C@@H](N)CS)[C@@H](C)O)C(C)C)C(=O)N[C@@H](CO)C(=O)N[C@@H](CCC(N)=O)C(=O)N[C@@H](CCC(=O)O)C(=O)N[C@@H](CC(C)C)C(=O)N[C@@H](Cc1cnc[nH]1)C(=O)N[C@@H](CCCCN)C(=O)N[C@@H](CC(C)C)C(=O)N[C@@H](CCC(N)=O)C(=O)N[C@H](C(=O)N[C@@H](Cc1ccc(O)cc1)C(=O)N1CCC[C@H]1C(=O)N[C@@H](CCCNC(=N)N)C(=O)N[C@H](C(=O)N[C@@H](CC(N)=O)C(=O)N[C@H](C(=O)NCC(=O)N[C@@H](CO)C(=O)NCC(=O)N[C@H](C(=O)N1CCC[C@H]1C(=O)O)[C@@H](C)O)[C@@H](C)O)[C@@H](C)O)[C@@H](C)O			half-life [1]: 1 h
656	≥ 200	≥ 200	≥ 200	≥ 200	≥ 200	624	≥ 200	0.016	0.017	≥ 200	133	129	≥ 200	CC(C)C[C@H](NC(=O)[C@H](C)NC(=O)[C@H](C)NC(=O)[C@@H](NC(=O)[C@H](CO)NC(=O)[C@H](CC(C)C)NC(=O)[C@H](CCC(=O)O)NC(=O)[C@H](CO)NC(=O)[C@H](C)NC(=O)CC[C@H](NC(=O)CCCCCCCCCCCCCCCCC(=O)O)C(=O)O)[C@@H](C)O)C(=O)NCC(=O)N[C@@H](CCCNC(=N)N)C(=O)N[C@@H](CC(C)C)C(=O)N[C@@H](CO)C(=O)N[C@@H](C)C(=O)N[C@@H](CCC(=O)O)C(=O)N[C@@H](CC(C)C)C(=O)N[C@@H](Cc1cnc[nH]1)C(=O)N[C@@H](CCC(=O)O)C(=O)N[C@@H](CC(C)C)C(=O)N[C@@H](C)C(=O)N[C@H](C(=O)N[C@@H](CC(C)C)C(=O)N1CCC[C@H]1C(=O)N[C@@H](CCCNC(=N)N)C(=O)N[C@H](C(=O)N[C@@H](CCC(=O)O)C(=O)N[C@H](C(=O)NCC(=O)N[C@@H](CO)C(=O)NCC(=O)N[C@@H](CO)C(=O)N1CCC[C@H]1C(N)=O)[C@@H](C)O)[C@@H](C)O)[C@@H](C)O ({C18 diacid-γGlu}-ASELSTAALGRLSAELHELATLPRTETGSGSP-NH2)	78	82	Time [4]: > 45 h; remaining at 1 µM [8]: 100%; EC50 [13]: 0.026 nM; EC50 [21]: 0.011 nM
732	≥ 200	≥ 200	≥ 200	≥ 200	≥ 200	712	≥ 200	0.008	0.005	≥ 200	67	67	≥ 200	CC(C)C[C@H](NC(=O)[C@H](C)NC(=O)[C@H](C)NC(=O)[C@@H](NC(=O)[C@H](CO)NC(=O)[C@H](CC(C)C)NC(=O)[C@H](CCC(=O)O)NC(=O)[C@H](CO)NC(=O)[C@H](C)NC(=O)[C@H](CCC(=O)O)NC(=O)CCCCCCCCCCCCCCCCC(=O)O)[C@@H](C)O)C(=O)NCC(=O)N[C@@H](CCCNC(=N)N)C(=O)N[C@@H](CC(C)C)C(=O)N[C@@H](CO)C(=O)N[C@@H](C)C(=O)N[C@@H](CCC(=O)O)C(=O)N[C@@H](CC(C)C)C(=O)N[C@@H](Cc1cnc[nH]1)C(=O)N[C@@H](CCC(=O)O)C(=O)N[C@@H](CC(C)C)C(=O)N[C@@H](C)C(=O)N[C@H](C(=O)N[C@@H](CC(C)C)C(=O)N1CCC[C@H]1C(=O)N[C@@H](CCCNC(=N)N)C(=O)N[C@H](C(=O)N[C@@H](CCC(=O)O)C(=O)N[C@H](C(=O)NCC(=O)N1CCC[C@H]1C(=O)N[C@@H](CCC(=O)O)C(=O)N[C@@H](CO)C(=O)N1CCC[C@H]1C(N)=O)[C@@H](C)O)[C@@H](C)O)[C@@H](C)O ({C18 diacid}-EASELSTAALGRLSAELHELATLPRTETGPESP-NH2)	60.67	79	Activity [22]: 90.6%; Activity [23]: 83.2%; IC50 [24]: 0.902 nM; Activity [25]: 93.4%; Activity [26]: 88.9%
														CCCCCCCCCCCCCCCC(=O)N[C@@H](CCC(=O)NCCCC[C@H](NC(=O)[C@H](C)NC(=O)[C@H](C)NC(=O)[C@H](CCC(N)=O)NC(=O)CNC(=O)[C@H](CCC(=O)O)NC(=O)[C@H](CC(C)C)NC(=O)[C@H](Cc1ccc(O)cc1)NC(=O)[C@H](CO)NC(=O)[C@H](CO)NC(=O)[C@@H](NC(=O)[C@H](CC(=O)O)NC(=O)[C@H](CO)NC(=O)[C@@H](NC(=O)[C@H](Cc1ccccc1)NC(=O)[C@@H](NC(=O)CNC(=O)[C@H](CCC(=O)O)NC(=O)[C@H](C)NC(=O)[C@@H](N)Cc1cnc[nH]1)[C@@H](C)O)[C@@H](C)O)C(C)C)C(=O)N[C@@H](CCC(=O)O)C(=O)N[C@@H](Cc1ccccc1)C(=O)N[C@H](C(=O)N[C@@H](C)C(=O)N[C@@H](Cc1c[nH]c2ccccc12)C(=O)N[C@@H](CC(C)C)C(=O)N[C@H](C(=O)N[C@@H](CCCNC(=N)N)C(=O)NCC(=O)N[C@@H](CCCNC(=N)N)C(=O)NCC(=O)O)C(C)C)[C@@H](C)CC)C(=O)O [LIRAGLUTIDE]			Activity [27]: 93.9%
